Laboratory results reported in ChEMBL document CHEMBL3045001, “Synthesis and evaluation of analgesic, anti-inflammatory, and anticancer activities of new pyrazole-3(5)-carboxylic acid derivatives” (Med Chem Res, 2013).

What was measured:
Assay type in all cases: functional
Details in all cases: route subcutaneous
Mus musculus [1] = test: Anti-inflammatory activity in carrageenan-induced Mus musculus Swiss albino (mouse) paw edema model assessed as inhibition of paw edema at 10 mg/kg, sc administered 30 min prior to carrageenan injection measured after 90 min
Mus musculus [2] = test: Anti-inflammatory activity in carrageenan-induced Mus musculus Swiss albino (mouse) paw edema model assessed as paw swelling at 10 mg/kg, sc administered 30 min prior to carrageenan injection measured after 360 min (reference value: 77.0 +/-3.0 x10'-2 mm)
Mus musculus [3] = test: Anti-inflammatory activity in carrageenan-induced Mus musculus Swiss albino (mouse) paw edema model assessed as inhibition of paw edema at 10 mg/kg, sc administered 30 min prior to carrageenan injection measured after 270 min
Mus musculus [4] = test: Anti-inflammatory activity in carrageenan-induced Mus musculus Swiss albino (mouse) paw edema model assessed as paw swelling at 10 mg/kg, sc administered 30 min prior to carrageenan injection measured after 90 min (reference value: 38.0 +/-2.0 x10'-2 mm)
Mus musculus [5] = test: Anti-inflammatory activity in carrageenan-induced Mus musculus Swiss albino (mouse) paw edema model assessed as inhibition of paw edema at 10 mg/kg, sc administered 30 min prior to carrageenan injection measured after 180 min
Mus musculus [6] = test: Anti-inflammatory activity in carrageenan-induced Mus musculus Swiss albino (mouse) paw edema model assessed as paw swelling at 10 mg/kg, sc administered 30 min prior to carrageenan injection measured after 270 min (reference value: 75.0 +/-3.0 x10'-2 mm)
Mus musculus [7] = test: Anti-inflammatory activity in carrageenan-induced Mus musculus Swiss albino (mouse) paw edema model assessed as paw swelling at 10 mg/kg, sc administered 30 min prior to carrageenan injection measured after 180 min (reference value: 51.0 +/-3.0 x10'-2 mm)
Mus musculus [8] = test: Anti-inflammatory activity in carrageenan-induced Mus musculus Swiss albino (mouse) paw edema model assessed as inhibition of paw edema at 10 mg/kg, sc administered 30 min prior to carrageenan injection measured after 360 min

Structure (SMILES): COc1ccc2c(c1)c(CC(=O)O)c(C)n2C(=O)c1ccc(Cl)cc1 [INDOMETHACIN]
- inhibition in vivo at 10 mg/kg (Mus musculus [1]): 15.5%
- Activity (Mus musculus [2]): 42 ×10⁻² mm
- inhibition in vivo at 10 mg/kg (Mus musculus [3]): 45.6%
- Activity (Mus musculus [4]): 32 ×10⁻² mm
- inhibition in vivo at 10 mg/kg (Mus musculus [5]): 31.7%
- Activity (Mus musculus [6]): 41 ×10⁻² mm
- Activity (Mus musculus [7]): 35 ×10⁻² mm
- inhibition in vivo at 10 mg/kg (Mus musculus [8]): 45.7%
